Laboratory results published in US11464770B2, “Anticancer pharmaceutical composition” (NATIONAL CANCER CENTER, priority 2016, dated 2022).
Like-named read-outs stand apart in the source and are kept apart here.

Legend:
[1] = test system: prostate cancer cell lines (e.g. DU145/TXR); assay: Cell based assay, cell viability (CellTiter-Glo), prostate cancer cell lines; settings: Homo sapiens, 72 hours treatment, final concentration 0 to 2 μM
Description: (§1) Commercially available bladder cancer, prostate cancer, lung cancer, breast cancer, blood cancer, pancreatic cancer, colorectal cancer, brain cancer, neuroblastoma, melanoma, liver cancer, cervical carcinoma, ovarian cancer, renal cancer, and papilloma cell lines were each treated with trypsin-EDTA and cultured, followed by being seeded in each well of a 96 well plate. After 24 hours of treatment at constant temperature, the respective cells were treated with the candidate compound so that a final concentration became 0 to 2 μM. The treated cells were additionally cultured for 72 hours, and cell viability was measured by using an ATP detection method (CellTiter-Glo® Luminescent Cell Viability Assay, Promega).

liver cancer cell lines = assay: Cell based assay, cell viability (CellTiter-Glo), liver cancer cell lines; settings: Homo sapiens, SK-HEP1; SK-HEP-1 cell line
Description: as §1

brain cancer cell lines = assay: Cell based assay, cell viability (CellTiter-Glo), brain cancer cell lines; settings: Homo sapiens
Description: as §1, with “After 24 hours of treatment at constant temperature, the respective cells were treated with the candidate compound so that a final concentration became 0 to 2 μM.” left out

[2] = test system: RT4: human urinary bladder transitional cell papilloma; assay: Cell based assay, cytotoxicity in RT4 papilloma cells (selectivity); settings: Homo sapiens, RT-4; RT4 cells
Description: as §1, with “After 24 hours of treatment at constant temperature, the respective cells were treated with the candidate compound so that a final concentration became 0 to 2 μM.” left out

[3] = test system: cervical carcinoma cell lines; assay: Cell based assay, cell viability (CellTiter-Glo), cervical carcinoma cell lines; settings: Homo sapiens; HeLa cells
Description: as §1, with “After 24 hours of treatment at constant temperature, the respective cells were treated with the candidate compound so that a final concentration became 0 to 2 μM.” left out

[4] = CWR22 cells, read-out: IC50, prostate cancer cell line CWR22
[5] = DU-145, DU145/TXR cells, read-out: IC50, prostate cancer cell line DU145/TXR
[6] = DU-145, DU145 cells, read-out: IC50, prostate cancer cell line DU145
[7] = LNcap cells, read-out: IC50, prostate cancer cell line LNcap
[8] = PC-3 cells, read-out: IC50, prostate cancer cell line PC-3
[9] = U138-MG, U-138 MG cell line, read-out: IC50, Brain cancer cell line U-138 MG
[10] = T98G cell line, read-out: IC50, Brain cancer cell line T98G
[11] = U-251 MG cell line, read-out: IC50, Brain cancer cell line U-251 MG

Row | IC50 [1, 4] [nM] | IC50 [1, 5] [nM] | IC50 [1, 6] [nM] | IC50 [1, 7] [nM] | IC50 [1, 8] [nM] | IC50 (liver cancer cell lines) [nM] | IC50 (brain cancer cell lines; [9]) [nM] | IC50 (brain cancer cell lines; [10]) [nM] | IC50 (brain cancer cell lines; [11]) [nM] | IC50 [3] [nM] | Compound | IC50 [2] [nM]
1 | > 2000 | > 2000 | > 2000 | > 2000 | > 2000 | > 2000 | > 10000 | > 10000 | > 2000 | > 10000 | CC(=O)c1c(SCc2ccc([N+](=O)[O-])cc2)[nH]c2c(Br)ccc(Cl)c2c1=O [Compound 32, 3-acetyl-8-bromo-5-chloro-2-((4-nitrobenzyl)thio)quinolin-4(1H)-one] | > 10000
2 | 1550 | 1910 | 1920 | > 2000 | > 2000 | 1200 | > 2000 | > 10000 | 1250 | > 2000 | CC(=O)c1c([S+]([O-])Cc2ccc(C#N)s2)[nH]c2c(Br)ccc(Cl)c2c1=O (stereo not shown) [Compound 98, 5-(((3-acetyl-8-bromo-5-chloro-4-oxo-1,4-dihydroquinolin-2-yl)sulfinyl)methyl)thiophene-2-carbonitrile] | > 10000
3 | > 2000 | > 2000 | > 2000 | > 2000 | > 2000 | > 2000 | > 10000 | > 10000 | > 2000 | > 10000 | CSc1c(C(C)=O)c(=O)c2c(Cl)ccc(Br)c2n1C(C)=O [Compound 18, 1,1′-(8-bromo-5-chloro-2-(methylthio)-4-oxoquinoline-1,3(4H)-diyl)bis(ethan-1-one)] | > 10000
4 | > 2000 | > 2000 | > 2000 | > 2000 | – | > 2000 | > 10000 | > 10000 | > 2000 | > 2000 | COCCNc1ccc(C[S+]([O-])c2[nH]c3c(Br)ccc(Cl)c3c(=O)c2C(C)=O)cn1 (stereo not shown) [Compound 105, 3-acetyl-8-bromo-5-chloro-2-(((6-((2-methoxyethyl)amino)pyridin-3-yl)methyl)sulfinyl)quinolin-4(1H)-one] | > 10000
5 | > 2000 | > 2000 | > 2000 | > 2000 | > 2000 | > 2000 | > 10000 | > 10000 | > 2000 | > 10000 | CC(=O)c1c([S+]([O-])CC#N)[nH]c2c(Br)ccc(Cl)c2c1=O (stereo not shown) [Compound 65, 2-((3-acetyl-8-bromo-5-chloro-4-oxo-1,4-dihydroquinolin-2-yl)sulfinyl)acetonitrile] | > 10000
6 | 1830 | 1650 | 1900 | > 2000 | 1640 | 1230 | > 2000 | > 10000 | > 2000 | > 10000 | CC(=O)c1c([S+](C)[O-])[nH]c2c(Br)ccc(Cl)c2c1=O (stereo not shown) [Compound 1, 3-acetyl-8-bromo-5-chloro-2-(methylsulfinyl)quinolin-4(1H)-one] | > 10000
7 | > 2000 | > 2000 | > 2000 | > 2000 | > 2000 | > 2000 | > 10000 | > 10000 | > 2000 | > 10000 | CSc1c(C(C)=O)c(=O)c2c(Cl)ccc(Br)c2n1S(=O)(=O)c1ccc(C(C)(C)C)cc1 [Compound 40, 3-acetyl-8-bromo-1-((4-(tert-butyl)phenyl)sulfonyl)-5-chloro-2-(methylthio)quinolin-4(1H)-one] | > 10000
8 | > 2000 | > 2000 | > 2000 | > 2000 | > 2000 | > 2000 | > 10000 | > 10000 | > 2000 | > 10000 | CC(=O)c1c(Sc2ccccc2)[nH]c2c(Br)ccc(Cl)c2c1=O [Compound 12, 3-acetyl-8-bromo-5-chloro-2-(phenylthio)quinolin-4(1H)-one] | > 10000
9 | > 2000 | > 2000 | > 2000 | > 2000 | – | > 2000 | > 10000 | > 10000 | > 2000 | > 2000 | CC(=O)c1c([S+]([O-])Cc2ccc(N)nc2)[nH]c2c(Br)ccc(Cl)c2c1=O (stereo not shown) [Compound 100, 3-acetyl-2-(((6-aminopyridin-3-yl)methyl)sulfinyl)-8-bromo-5-chloroquinolin-4(1H)-one] | > 10000
10 | > 2000 | > 2000 | > 2000 | > 2000 | – | > 2000 | > 2000 | > 10000 | > 2000 | > 10000 | CC(=O)c1c([S+]([O-])Cc2ccc(C(=O)c3ccccc3)cc2)[nH]c2c(Br)ccc(Cl)c2c1=O (stereo not shown) [Compound 63, 3-acetyl-2-((4-benzoylbenzyl)sulfinyl)-8-bromo-5-chloroquinolin-4(1H)-one] | > 10000
11 | > 2000 | > 2000 | > 2000 | > 2000 | > 2000 | > 2000 | > 10000 | > 10000 | > 2000 | > 10000 | COCSc1[nH]c2c(Br)ccc(Cl)c2c(=O)c1C(C)=O [Compound 61, 3-acetyl-8-bromo-5-chloro-2-((methoxymethyl)thio)quinolin-4(1H)-one] | > 10000
12 | > 2000 | > 2000 | > 2000 | > 2000 | > 2000 | > 2000 | > 10000 | > 10000 | > 2000 | > 10000 | CC(=O)c1c(SCc2cc(F)cc(F)c2)[nH]c2c(Br)ccc(Cl)c2c1=O [Compound 45, 3-acetyl-8-bromo-5-chloro-2-((3,5-difluorobenzyl)thio)quinolin-4(1H)-one] | > 10000
13 | > 2000 | > 2000 | > 2000 | > 2000 | > 2000 | > 2000 | > 2000 | > 10000 | > 2000 | > 10000 | CC(=O)c1c([S+](C)[O-])n(S(=O)(=O)c2ccc(C(C)(C)C)cc2)c2c(Br)ccc(Cl)c2c1=O (stereo not shown) [Compound 42, 3-acetyl-8-bromo-1-((4-(tert-butyl)phenyl)sulfonyl)-5-chloro-2-(methylsulfinyl)quinolin-4(1H)-one] | > 10000
14 | > 2000 | > 2000 | > 2000 | > 2000 | > 2000 | > 2000 | > 10000 | > 10000 | > 2000 | > 10000 | CSc1[nH]c2ccc(F)cc2c(=O)c1C(C)=O [Compound 8, 1-(6-fluoro-4-hydroxy-2-(methylthio)quinolin-3-yl)ethan-1-one] | > 10000
15 | > 2000 | > 2000 | > 2000 | > 2000 | > 2000 | > 2000 | > 10000 | > 10000 | > 2000 | > 10000 | CC(=O)c1c([S+]([O-])Cc2ccccc2)n(C(=O)c2ccc(Br)cc2)c2c(Br)ccc(Cl)c2c1=O (stereo not shown) [Compound 20, 3-acetyl-2-(benzylsulfinyl)-8-bromo-1-(4-bromobenzoyl)-5-chloroquinolin-4(1H)-one] | > 10000
16 | 1870 | 1110 | 1000 | > 2000 | 1300 | 1040 | 1540 | > 10000 | 1160 | > 10000 | CC(=O)c1c([S+]([O-])Cc2ccc(S(F)(F)(F)(F)F)cc2F)[nH]c2c(Br)ccc(Cl)c2c1=O (stereo not shown) [Compound 69, 3-acetyl-8-bromo-5-chloro-2-((2-fluoro-4-(pentafluoro-16-sulfanyl)benzyl)sulfinyl)quinolin-4(1H)-one] | > 10000
17 | > 2000 | > 2000 | > 2000 | > 2000 | > 2000 | > 2000 | > 10000 | > 10000 | > 2000 | > 10000 | CC(=O)c1c(SCc2ccc(Cl)cc2)[nH]c2c(Br)ccc(Cl)c2c1=O [Compound 10, 3-acetyl-8-bromo-5-chloro-2-((4-chlorobenzyl)thio)quinolin-4(1H)-one] | > 10000
18 | > 2000 | 1570 | > 2000 | > 2000 | – | > 2000 | > 2000 | > 10000 | > 2000 | > 10000 | CC(=O)c1c([S+]([O-])Cc2cccc(I)c2)[nH]c2c(Br)ccc(Cl)c2c1=O (stereo not shown) [Compound 48, 3-acetyl-8-bromo-5-chloro-2-((3-iodobenzyl)sulfinyl)quinolin-4(1H)-one] | > 10000
19 | > 2000 | > 2000 | > 2000 | > 2000 | > 2000 | > 2000 | > 10000 | > 10000 | > 2000 | > 10000 | CC(=O)c1c([S+](C)[O-])n(C(C)=O)c2c(Br)ccc(Cl)c2c1=O (stereo not shown) [Compound 19, 1,1′-(8-bromo-5-chloro-2-(methylsulfinyl)-4-oxoquinoline-1,3(4H)-diyl)bis(ethan-1-one)] | > 10000
20 | > 2000 | > 2000 | > 2000 | > 2000 | > 2000 | > 2000 | > 10000 | > 10000 | > 2000 | > 10000 | CC(=O)c1c(SCc2ccccc2)[nH]c2c(Br)ccc(Cl)c2c1=O [Compound 3, 3-acetyl-2-(benzylthio)-8-bromo-5-chloroquinolin-4(1H)-one] | > 10000

Row | Compound | IC50 [1, 4] [nM] | IC50 [1, 5] [nM] | IC50 [1, 6] [nM] | IC50 [1, 7] [nM] | IC50 [1, 8] [nM] | IC50 (liver cancer cell lines) [nM] | IC50 (brain cancer cell lines; [9]) [nM] | IC50 (brain cancer cell lines; [10]) [nM] | IC50 (brain cancer cell lines; [11]) [nM] | IC50 [3] [nM] | IC50 [2] [nM]
21 | CC(=O)c1c([S+]([O-])Cc2ccccc2)nc2c(Br)ccc(Cl)c2c1O (stereo not shown) [Compound 53, 1-(2-(benzylsulfinyl)-8-bromo-5-chloro-4-hydroxyquinolin-3-yl)ethan-1-one] | > 2000 | > 2000 | > 2000 | > 2000 | – | > 2000 | > 10000 | > 10000 | > 2000 | > 10000 | > 10000
